Experimental findings from ChEMBL document CHEMBL2406964, “Caffeic acid phenethyl ester inhibits alpha-melanocyte stimulating hormone-induced melanin synthesis through suppressing transactivation activity of microphthalmia-associated transcription factor” (J Nat Prod, 2013) are described below.

Data set [1] relates to B16-F10. The data set is described as follows: Antimelanogenic activity in mouse B16F10 cells assessed as inhibition of alpha-MSH-induced melanin production at 1 to 2 uM after 72 hrs by spectrophotometry. The data set is classed as functional, cell-based.
For data set [2], the system named is B16-F10. The data set is described as follows: Antimelanogenic activity in mouse B16F10 cells assessed as inhibition of alpha-MSH-induced MITF nuclear translocation at 1 uM after 30 mins to 2 hrs by Western blotting analysis. Type of data set: functional, cell-based.
The subject of data set [3] is B16-F10. The data set is described as follows: Antimelanogenic activity in mouse B16F10 cells assessed as inhibition of alpha-MSH-induced secreted melanin production after 72 hrs by spectrophotometry. The data set is classed as functional, cell-based.
Data set [4] has as its target T1, Microphthalmia-associated transcription factor (Mus musculus) (UniProt Q08874).
T1 sequence (whole entry): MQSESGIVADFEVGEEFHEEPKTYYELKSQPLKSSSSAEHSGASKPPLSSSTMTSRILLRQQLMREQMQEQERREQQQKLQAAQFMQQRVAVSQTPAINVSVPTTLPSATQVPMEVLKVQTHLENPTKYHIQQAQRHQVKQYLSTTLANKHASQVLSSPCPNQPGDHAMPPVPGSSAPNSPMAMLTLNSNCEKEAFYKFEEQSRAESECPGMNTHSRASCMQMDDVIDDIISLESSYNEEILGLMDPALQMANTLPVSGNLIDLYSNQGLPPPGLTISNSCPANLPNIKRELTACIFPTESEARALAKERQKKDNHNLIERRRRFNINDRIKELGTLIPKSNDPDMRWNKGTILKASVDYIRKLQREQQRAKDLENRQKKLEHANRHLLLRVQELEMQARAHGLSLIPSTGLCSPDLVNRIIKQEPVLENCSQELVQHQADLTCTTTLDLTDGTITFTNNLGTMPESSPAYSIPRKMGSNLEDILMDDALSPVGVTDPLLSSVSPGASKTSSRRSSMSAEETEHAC
The data set is described as follows: Inhibition of MITF binding to M-box region of TRP-2 promoter in alpha-MSH-induced mouse B16F10 cells at 1 uM after 24 hrs by Chromatin immunoprecipitation assay. Type of data set: cell-based. To be noted: B16-F10.

For data set [5], the target named is T1, Microphthalmia-associated transcription factor (Mus musculus). The data set is described as follows: Inhibition of MITF binding to M-box region of TRP-1 promoter in alpha-MSH-induced mouse B16F10 cells at 1 uM after 24 hrs by Chromatin immunoprecipitation assay. The data set is classed as cell-based. To be noted: B16-F10.
Data set [6] has as its system B16-F10. Nature of the data set: Inhibition of CREB phosphorylation in alpha-MSH-induced mouse B16F10 cells at 1 uM after 30 mins to 2 hrs by Western blotting analysis. Type of data set: cell-based. (In general: In western blotting, separated proteins are transferred to a membrane and probed.)
For data set [7], the system named is B16-F10. Nature of the data set: Antimelanogenic activity in mouse B16F10 cells assessed as inhibition of alpha-MSH-induced MITF protein expression at 1 uM after 30 mins to 2 hrs by Western blotting analysis. Type of data set: functional, cell-based.
The target in data set [8] is T1, Microphthalmia-associated transcription factor (Mus musculus). The data set is described as follows: Inhibition of MITF in mouse B16F10 cells assessed as inhibition of alpha-MSH-induced TRP2 protein expression after 48 hrs by Western blotting analysis. The data set is classed as cell-based. To be noted: B16-F10.
In data set [9] the test system is B16-F10. The data set is described as follows: Cytotoxicity against mouse B16F10 cells up to 2 uM after 72 hrs by MTT assay. As to conditions: b16-f10, 72 h. The data set is classed as cell-based. In general terms: Tetrazolium assays rely on reduction of a dye to a coloured formazan, in cell work by metabolically active cells.
Data set [10] deals with T1, Microphthalmia-associated transcription factor (Mus musculus). Nature of the data set: Inhibition of MITF in mouse B16F10 cells assessed as inhibition of alpha-MSH-induced TRP2 mRNA expression after 48 hrs by RT-PCR analysis. Type of data set: cell-based. To be noted: B16-F10.
Data set [11] has the same target. The data set is described as follows: Inhibition of MITF in mouse B16F10 cells assessed as inhibition of alpha-MSH-induced TRP1 mRNA expression after 48 hrs by RT-PCR analysis. Type of data set: cell-based. As to conditions: B16-F10.
Data set [12] has as its target RAC-alpha serine/threonine-protein kinase (Mus musculus) (UniProt P31750). The data set is described as follows: Inhibition of Akt phosphorylation in alpha-MSH-induced mouse B16F10 cells at 1 uM after 30 mins to 2 hrs by Western blotting analysis. Type of data set: cell-based. To be noted: B16-F10.
In data set [13] the target is T1, Microphthalmia-associated transcription factor (Mus musculus). The data set is described as follows: Inhibition of MITF in mouse B16F10 cells assessed as inhibition of alpha-MSH-induced TRP1 protein expression after 48 hrs by Western blotting analysis. As to conditions: B16-F10. Type of data set: cell-based.
For data set [14] the target is unchanged. The data set is described as follows: Inhibition of MITF in mouse B16F10 cells assessed as inhibition of alpha-MSH-induced tyrosinase mRNA expression after 48 hrs by RT-PCR analysis. The data set is classed as cell-based. To be noted: B16-F10.
Data set [15] shares this target. The data set is described as follows: Inhibition of MITF binding to M-box region of tyrosinase promoter in alpha-MSH-induced mouse B16F10 cells at 1 uM after 24 hrs by Chromatin immunoprecipitation assay. To be noted: B16-F10. The data set is classed as cell-based.
The target in data set [16] is T2, Tyrosinase (Mus musculus) (UniProt P11344).
T2 sequence (whole entry): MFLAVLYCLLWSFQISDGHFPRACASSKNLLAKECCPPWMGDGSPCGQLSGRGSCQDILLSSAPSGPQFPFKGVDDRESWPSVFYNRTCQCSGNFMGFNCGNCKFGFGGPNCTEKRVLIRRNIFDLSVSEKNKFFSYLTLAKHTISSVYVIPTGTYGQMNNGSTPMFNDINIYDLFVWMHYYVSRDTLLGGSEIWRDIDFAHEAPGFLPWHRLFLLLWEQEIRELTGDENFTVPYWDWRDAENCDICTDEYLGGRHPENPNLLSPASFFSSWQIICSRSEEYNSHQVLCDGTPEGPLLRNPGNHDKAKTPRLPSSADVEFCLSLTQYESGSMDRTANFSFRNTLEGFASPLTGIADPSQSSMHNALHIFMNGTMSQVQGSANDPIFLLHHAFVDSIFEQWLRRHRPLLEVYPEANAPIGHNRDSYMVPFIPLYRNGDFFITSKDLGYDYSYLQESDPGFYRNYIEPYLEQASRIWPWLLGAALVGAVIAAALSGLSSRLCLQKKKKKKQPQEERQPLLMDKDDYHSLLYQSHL
Nature of the data set: Inhibition of tyrosinase in alpha-MSH-treated mouse B16F10 cells up to 100 uM after 72 hrs by L-DOPA oxidase assay. The data set is classed as cell-based. As to conditions: B16-F10.

Data set [17] addresses T2, Tyrosinase (Mus musculus). The data set is described as follows: Inhibition of tyrosinase in alpha-MSH-treated mouse B16F10 cells assessed as reduction in L-DOPA oxidase activity at 0.5 to 2 uM after 72 hrs. To be noted: B16-F10. Type of data set: cell-based.
For data set [18], the system named is B16-F10. Nature of the data set: Antimelanogenic activity in mouse B16F10 cells assessed as inhibition of alpha-MSH-induced MITF mRNA expression at 1 uM after 30 mins to 2 hrs by RT-PCR analysis. Type of data set: functional, cell-based.
Data set [19] deals with B16-F10. The data set is described as follows: Antimelanogenic activity in mouse B16F10 cells assessed as inhibition of alpha-MSH-induced intracellular melanin production after 72 hrs by spectrophotometry. Type of data set: functional, cell-based.
Data set [20] addresses T1, Microphthalmia-associated transcription factor (Mus musculus). Nature of the data set: Inhibition of MITF in mouse B16F10 cells assessed as inhibition of alpha-MSH-induced tyrosinase promoter activity after 24 hrs by luciferase reporter gene assay. Type of data set: cell-based. As to conditions: B16-F10. (In general: Reporter assays use an easily measured gene product as a stand-in for the process of interest.)

For data set [21], the target named is Glycogen synthase kinase-3 beta (Mus musculus) (UniProt Q9WV60). Nature of the data set: Inhibition of GSK-3beta phosphorylation in alpha-MSH-induced mouse B16F10 cells at 1 uM after 30 mins to 2 hrs by Western blotting analysis. Type of data set: cell-based. As to conditions: B16-F10.
Chain of Glycogen synthase kinase-3 beta (Mus musculus) (Q9WV60 whole entry, looked up): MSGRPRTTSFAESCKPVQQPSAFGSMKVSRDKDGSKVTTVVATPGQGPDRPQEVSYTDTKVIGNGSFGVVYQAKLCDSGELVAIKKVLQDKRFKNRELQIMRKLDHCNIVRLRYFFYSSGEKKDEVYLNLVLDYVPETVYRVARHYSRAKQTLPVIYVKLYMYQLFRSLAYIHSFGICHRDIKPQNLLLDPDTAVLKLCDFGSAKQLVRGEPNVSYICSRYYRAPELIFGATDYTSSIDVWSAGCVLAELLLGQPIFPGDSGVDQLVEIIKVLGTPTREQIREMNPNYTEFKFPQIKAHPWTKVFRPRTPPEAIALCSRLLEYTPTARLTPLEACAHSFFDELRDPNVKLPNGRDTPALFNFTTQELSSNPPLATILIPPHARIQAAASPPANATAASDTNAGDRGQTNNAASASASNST
In data set [22] the target is T1, Microphthalmia-associated transcription factor (Mus musculus). Nature of the data set: Inhibition of MITF in mouse B16F10 cells assessed as inhibition of alpha-MSH-induced tyrosinase protein expression after 48 hrs by Western blotting analysis. Type of data set: cell-based. To be noted: B16-F10.

Activity calls are given as the source filed them. The calls are words filed in the database; no cut-off is given here.

Chain of RAC-alpha serine/threonine-protein kinase (Mus musculus) (P31750 whole entry): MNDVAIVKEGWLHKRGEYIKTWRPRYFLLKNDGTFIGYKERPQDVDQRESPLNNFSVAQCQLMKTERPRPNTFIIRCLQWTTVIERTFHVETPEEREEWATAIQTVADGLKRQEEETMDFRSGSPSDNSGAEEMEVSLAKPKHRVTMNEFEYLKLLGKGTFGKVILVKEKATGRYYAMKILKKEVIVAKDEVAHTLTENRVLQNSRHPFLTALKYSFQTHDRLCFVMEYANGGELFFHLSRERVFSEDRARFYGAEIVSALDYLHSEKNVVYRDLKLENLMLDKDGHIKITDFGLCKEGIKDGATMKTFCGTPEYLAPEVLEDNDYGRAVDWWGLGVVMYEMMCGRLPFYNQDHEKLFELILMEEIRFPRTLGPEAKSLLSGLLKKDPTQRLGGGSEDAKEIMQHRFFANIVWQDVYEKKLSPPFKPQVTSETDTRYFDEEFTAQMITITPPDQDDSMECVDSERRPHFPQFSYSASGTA

Take `O=C(/C=C/c1ccccc1)OCCc1ccccc1`: the inhibition entry with B16-F10 [1] is “inactive”.
The same measure, in the same setting: then `O=C(O)/C=C/c1ccc(O)c(O)c1`, with “inactive”; and `OCCc1ccccc1`, with “inactive”.
For `O=C(/C=C/c1ccc(O)c(O)c1)OCCc1ccccc1` [CAFFEIC ACID PHENETHYL ESTER], the inhibition entry (with B16-F10 [2]; in the data set with B16-F10 [6]; with B16-F10 [7]; in data set [12]; in data set [16]; in the data set with B16-F10 [18]) was “inactive” in each case. Besides, the inhibition entry in data set [21] was “inactive”. Moreover, the inhibition result (in the data set on B16-F10 [3]; in data set [8]; in data set [10]; in [11]; in data set [13]; in [14]) was “Dose-dependent effect” each time. The inhibition entry (with B16-F10 [19]; in data set [20]; in data set [22]) was “Dose-dependent effect” in each case. Also, the inhibition entry in [4], in data set [5], in data set [15] and in data set [17] was “Active” throughout. Moreover, the Activity entry in the data set on B16-F10 [9] is “Non-toxic”.
